Test results: ChEMBL document CHEMBL1201862, “PubChem BioAssay data set” (2004)
Active and inactive are the calls of the source.

How the values were obtained:
Leucine aminopeptidase = Leucine aminopeptidase (Plasmodium falciparum 3D7, UniProt Q8IL11); experiment: P. falciparum M17LAP inhibitors, primary screen, biochemical, fluorogenic H-Leu-NHMec substrate, 1536-well (AID 1619); format: functional
[1] = Dd2 parasite growth inhibition in erythrocytes – SYBR Green, dry powder samples, set 9, dose response (AID 1159568); format: functional, cell-based
[2] = target: T1, RNA-binding protein pos-1 (Caenorhabditis elegans, UniProt G5EF15); experiment: disruptors of C. elegans POS-1 RNA interaction – biochemical, fluorescence polarization, dose response (AID 1964);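 also: purified POS-1 fused to maltose binding protein made in E. coli; potency of compounds blocking POS-1 binding to fluorescent RNA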
T1 sequence (G5EF15 whole entry): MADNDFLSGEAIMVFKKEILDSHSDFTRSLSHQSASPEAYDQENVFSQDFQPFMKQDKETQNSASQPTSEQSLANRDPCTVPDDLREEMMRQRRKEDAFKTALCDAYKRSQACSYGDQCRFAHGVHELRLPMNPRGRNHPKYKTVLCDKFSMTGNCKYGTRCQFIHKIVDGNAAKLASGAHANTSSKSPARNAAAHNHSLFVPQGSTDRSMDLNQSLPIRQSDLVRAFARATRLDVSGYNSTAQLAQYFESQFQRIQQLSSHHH

[3] = target: T2, Zinc finger protein mex-5 (Caenorhabditis elegans, UniProt Q9XUB2); experiment: potency of MEX-5 RNA-binding blockers – biochemical, C. elegans, fluorescence polarization, dose response (AID 1960)
T2 sequence (Q9XUB2 whole entry): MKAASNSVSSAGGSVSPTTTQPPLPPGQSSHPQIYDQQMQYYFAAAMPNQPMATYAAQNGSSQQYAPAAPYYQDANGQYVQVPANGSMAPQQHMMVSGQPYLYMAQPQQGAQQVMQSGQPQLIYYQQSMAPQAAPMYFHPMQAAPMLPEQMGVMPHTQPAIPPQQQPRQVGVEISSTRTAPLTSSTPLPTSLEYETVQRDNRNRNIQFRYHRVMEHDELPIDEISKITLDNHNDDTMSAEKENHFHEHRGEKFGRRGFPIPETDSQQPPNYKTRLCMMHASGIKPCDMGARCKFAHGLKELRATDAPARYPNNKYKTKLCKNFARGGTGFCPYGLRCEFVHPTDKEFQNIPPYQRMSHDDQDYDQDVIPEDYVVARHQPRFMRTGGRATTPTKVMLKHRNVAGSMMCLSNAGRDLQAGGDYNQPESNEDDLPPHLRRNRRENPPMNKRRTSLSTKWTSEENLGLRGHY

[4] = target: Photoreceptor-specific nuclear receptor (Homo sapiens, UniProt Q9Y5X4); experiment: ligands suppressing NR2E3 nuclear receptor activity – biochemical, TR-FRET, dose response (AID 463256); format: functional
Sequence of Photoreceptor-specific nuclear receptor (Q9Y5X4 whole entry): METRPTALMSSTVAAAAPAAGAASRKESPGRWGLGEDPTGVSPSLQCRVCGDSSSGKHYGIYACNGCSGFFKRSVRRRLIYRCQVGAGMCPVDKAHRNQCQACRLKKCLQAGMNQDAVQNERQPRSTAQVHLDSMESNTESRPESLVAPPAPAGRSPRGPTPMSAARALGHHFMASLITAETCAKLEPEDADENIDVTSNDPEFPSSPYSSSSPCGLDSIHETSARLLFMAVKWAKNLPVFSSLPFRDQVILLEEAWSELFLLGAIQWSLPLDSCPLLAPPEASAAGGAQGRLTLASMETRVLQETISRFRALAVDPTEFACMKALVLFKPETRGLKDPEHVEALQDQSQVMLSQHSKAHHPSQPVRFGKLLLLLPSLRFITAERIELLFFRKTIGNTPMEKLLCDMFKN

[5] = target: Peroxisome proliferator-activated receptor gamma/Nuclear receptor corepressor 2 (Homo sapiens, UniProt P37231+Q9Y618); experiment: Counterscreen for NR2E3 inverse agonists: TR-FRET-based biochemical high throughput dose response assay to identify inverse agonists of the interaction between peroxisome proliferator-activated receptor gamma (PPARg) and nuclear receptor co-repressor 2 (NCOR2).; format: functional
Sequence of Peroxisome proliferator-activated receptor gamma/Nuclear receptor corepressor 2 (P37231 whole entry): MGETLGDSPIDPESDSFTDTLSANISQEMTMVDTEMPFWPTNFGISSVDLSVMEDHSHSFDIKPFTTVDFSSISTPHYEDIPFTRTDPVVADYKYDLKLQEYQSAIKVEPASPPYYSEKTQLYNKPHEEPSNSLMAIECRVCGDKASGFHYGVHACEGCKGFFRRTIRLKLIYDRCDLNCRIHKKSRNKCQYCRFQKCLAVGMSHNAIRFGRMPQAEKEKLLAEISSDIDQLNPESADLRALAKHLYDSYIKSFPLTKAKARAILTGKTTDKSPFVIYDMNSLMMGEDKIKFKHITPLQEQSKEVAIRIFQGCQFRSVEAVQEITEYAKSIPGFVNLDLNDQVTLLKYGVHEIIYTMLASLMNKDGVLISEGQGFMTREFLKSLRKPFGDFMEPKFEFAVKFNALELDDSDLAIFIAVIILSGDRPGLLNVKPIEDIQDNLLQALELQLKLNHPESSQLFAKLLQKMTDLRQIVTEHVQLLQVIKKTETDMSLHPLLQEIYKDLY
Sequence of Peroxisome proliferator-activated receptor gamma/Nuclear receptor corepressor 2 (Q9Y618 whole entry): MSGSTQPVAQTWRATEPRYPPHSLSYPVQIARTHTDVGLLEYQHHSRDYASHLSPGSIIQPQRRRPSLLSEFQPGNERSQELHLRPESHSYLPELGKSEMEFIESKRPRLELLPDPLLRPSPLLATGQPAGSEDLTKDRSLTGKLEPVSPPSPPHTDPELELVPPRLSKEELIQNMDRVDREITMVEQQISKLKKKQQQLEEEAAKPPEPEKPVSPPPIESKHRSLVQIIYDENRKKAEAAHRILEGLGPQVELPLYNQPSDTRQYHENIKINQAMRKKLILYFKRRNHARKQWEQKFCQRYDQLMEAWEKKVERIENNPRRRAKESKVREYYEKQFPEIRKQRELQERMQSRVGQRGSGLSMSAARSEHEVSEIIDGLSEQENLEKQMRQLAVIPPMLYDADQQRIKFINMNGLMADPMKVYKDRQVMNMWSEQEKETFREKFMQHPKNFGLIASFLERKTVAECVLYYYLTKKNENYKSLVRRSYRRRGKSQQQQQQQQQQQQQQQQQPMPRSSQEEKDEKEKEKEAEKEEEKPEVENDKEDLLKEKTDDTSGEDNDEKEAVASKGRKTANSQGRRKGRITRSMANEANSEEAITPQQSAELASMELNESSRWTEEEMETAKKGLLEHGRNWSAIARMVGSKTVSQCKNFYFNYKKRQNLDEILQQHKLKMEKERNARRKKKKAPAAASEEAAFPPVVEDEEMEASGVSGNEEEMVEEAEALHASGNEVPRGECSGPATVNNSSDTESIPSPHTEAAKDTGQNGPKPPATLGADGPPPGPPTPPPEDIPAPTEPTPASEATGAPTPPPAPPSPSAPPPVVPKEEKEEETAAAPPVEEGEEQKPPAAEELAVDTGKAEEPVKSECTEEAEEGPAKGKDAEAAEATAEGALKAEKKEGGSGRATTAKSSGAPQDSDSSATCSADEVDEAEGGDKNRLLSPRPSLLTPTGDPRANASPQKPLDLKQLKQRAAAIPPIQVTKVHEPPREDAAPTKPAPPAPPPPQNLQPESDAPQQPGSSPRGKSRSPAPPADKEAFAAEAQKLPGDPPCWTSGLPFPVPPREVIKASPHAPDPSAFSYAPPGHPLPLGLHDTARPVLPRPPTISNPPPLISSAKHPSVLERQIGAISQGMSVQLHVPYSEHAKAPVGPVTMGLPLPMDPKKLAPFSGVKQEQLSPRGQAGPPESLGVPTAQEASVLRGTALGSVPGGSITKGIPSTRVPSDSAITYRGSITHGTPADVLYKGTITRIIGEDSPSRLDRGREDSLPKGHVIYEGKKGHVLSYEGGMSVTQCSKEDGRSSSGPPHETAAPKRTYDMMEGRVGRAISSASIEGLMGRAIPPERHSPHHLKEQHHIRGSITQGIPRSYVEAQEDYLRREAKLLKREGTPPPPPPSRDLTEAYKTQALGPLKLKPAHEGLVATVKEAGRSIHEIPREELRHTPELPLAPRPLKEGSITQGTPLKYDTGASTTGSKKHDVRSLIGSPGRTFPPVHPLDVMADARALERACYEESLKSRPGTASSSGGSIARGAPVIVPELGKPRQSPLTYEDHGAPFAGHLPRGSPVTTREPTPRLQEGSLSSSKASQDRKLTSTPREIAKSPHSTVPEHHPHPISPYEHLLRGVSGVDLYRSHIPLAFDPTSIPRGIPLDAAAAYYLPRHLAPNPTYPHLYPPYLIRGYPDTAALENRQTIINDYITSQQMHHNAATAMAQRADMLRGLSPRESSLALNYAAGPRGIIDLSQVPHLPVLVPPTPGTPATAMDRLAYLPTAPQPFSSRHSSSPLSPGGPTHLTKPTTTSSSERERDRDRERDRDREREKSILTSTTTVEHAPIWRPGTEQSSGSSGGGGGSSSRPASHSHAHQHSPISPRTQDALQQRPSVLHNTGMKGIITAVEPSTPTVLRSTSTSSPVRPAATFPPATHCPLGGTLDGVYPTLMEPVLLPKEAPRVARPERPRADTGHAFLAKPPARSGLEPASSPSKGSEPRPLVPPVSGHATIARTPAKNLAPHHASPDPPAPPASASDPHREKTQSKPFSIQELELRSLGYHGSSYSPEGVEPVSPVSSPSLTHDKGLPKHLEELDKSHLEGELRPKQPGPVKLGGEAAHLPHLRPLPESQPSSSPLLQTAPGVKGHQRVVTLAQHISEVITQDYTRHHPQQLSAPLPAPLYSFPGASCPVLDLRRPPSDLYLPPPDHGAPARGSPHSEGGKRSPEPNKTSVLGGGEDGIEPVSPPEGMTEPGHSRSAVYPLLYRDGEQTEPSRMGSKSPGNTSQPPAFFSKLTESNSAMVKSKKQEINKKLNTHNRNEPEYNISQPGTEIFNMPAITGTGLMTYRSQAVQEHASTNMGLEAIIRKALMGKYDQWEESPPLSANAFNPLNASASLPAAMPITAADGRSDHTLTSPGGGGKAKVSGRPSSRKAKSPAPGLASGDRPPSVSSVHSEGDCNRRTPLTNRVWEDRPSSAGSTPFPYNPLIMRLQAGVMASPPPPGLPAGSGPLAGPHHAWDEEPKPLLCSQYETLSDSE

[6] = NIH3T3 cell viability loss – ATP luminescence, mouse fibroblasts, counter-screen, dose response (AID 2010); format: functional, cell-based;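 also: cells exposed to compound for about 90 hours before reading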
[7] = Trypanosoma cruzi growth suppression in host cells – NIH3T3 host cells, beta-gal luminescence, confirmation (AID 2044); format: functional, cell-based;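 also: intracellular parasites grown in NIH/3T3 mouse fibroblasts as host cells; luminescent beta-galactosidase reporter signal from transgenic T. cruzi replicating inside host cells; inhibitors lower the luminescence signal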
Vero = experiment: mammalian cell viability reduction – secondary assay, cytotoxicity control for West Nile virus antiviral project, dose response (AID 1650); format: functional; details: Chlorocebus sabaeus
[8] = target: T3, Dual specificity protein phosphatase 6 (Rattus norvegicus, UniProt Q64346); experiment: inhibition of rat DUSP6 enzyme activity – biochemical, in vitro, primary screen (AID 425)
T3 sequence (Q64346 whole entry): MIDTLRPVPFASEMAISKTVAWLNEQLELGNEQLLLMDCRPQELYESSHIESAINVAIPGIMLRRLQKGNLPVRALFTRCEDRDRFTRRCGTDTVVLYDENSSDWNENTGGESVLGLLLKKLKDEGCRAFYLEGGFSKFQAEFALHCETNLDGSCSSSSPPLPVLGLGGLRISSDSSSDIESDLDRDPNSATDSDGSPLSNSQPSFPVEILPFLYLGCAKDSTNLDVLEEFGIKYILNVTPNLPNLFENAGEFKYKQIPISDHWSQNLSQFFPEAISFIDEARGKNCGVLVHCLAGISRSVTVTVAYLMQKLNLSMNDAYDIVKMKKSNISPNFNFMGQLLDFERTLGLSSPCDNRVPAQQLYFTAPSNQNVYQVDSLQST

Estrogen receptor = Estrogen receptor (Homo sapiens, UniProt P03372); experiment: ERα coactivator recruitment enhancers – biochemical, TR-FRET, ERα LBD, dose response (AID 737)
Sequence of Estrogen receptor (P03372 whole entry, the tested form may be a part): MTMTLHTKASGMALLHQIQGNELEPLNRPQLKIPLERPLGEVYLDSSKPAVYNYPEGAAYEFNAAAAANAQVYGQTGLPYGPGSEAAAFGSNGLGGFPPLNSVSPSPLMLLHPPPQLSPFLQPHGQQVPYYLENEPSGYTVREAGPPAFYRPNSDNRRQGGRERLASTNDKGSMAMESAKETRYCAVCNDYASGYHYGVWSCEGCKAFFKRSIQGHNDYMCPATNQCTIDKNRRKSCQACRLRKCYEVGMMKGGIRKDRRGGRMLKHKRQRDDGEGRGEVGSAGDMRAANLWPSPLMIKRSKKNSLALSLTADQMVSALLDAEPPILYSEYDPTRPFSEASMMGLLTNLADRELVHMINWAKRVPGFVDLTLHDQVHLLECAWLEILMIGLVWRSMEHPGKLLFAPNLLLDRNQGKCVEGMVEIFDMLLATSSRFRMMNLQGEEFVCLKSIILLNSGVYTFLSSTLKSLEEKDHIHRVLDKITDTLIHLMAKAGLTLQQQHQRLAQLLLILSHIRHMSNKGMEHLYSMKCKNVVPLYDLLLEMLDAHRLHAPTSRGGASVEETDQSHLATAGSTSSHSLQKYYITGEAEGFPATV

[9] = target: T4, Corticotropin-releasing factor receptor 2/Corticotropin-releasing factor-binding protein (Homo sapiens, UniProt P24387+Q13324); experiment: activators of CRF receptor 2 with binding protein – uHTS hits, confirmation (AID 602473); format: functional; details: read-out: EC50_Mean
T4 sequence (Q13324 whole entry): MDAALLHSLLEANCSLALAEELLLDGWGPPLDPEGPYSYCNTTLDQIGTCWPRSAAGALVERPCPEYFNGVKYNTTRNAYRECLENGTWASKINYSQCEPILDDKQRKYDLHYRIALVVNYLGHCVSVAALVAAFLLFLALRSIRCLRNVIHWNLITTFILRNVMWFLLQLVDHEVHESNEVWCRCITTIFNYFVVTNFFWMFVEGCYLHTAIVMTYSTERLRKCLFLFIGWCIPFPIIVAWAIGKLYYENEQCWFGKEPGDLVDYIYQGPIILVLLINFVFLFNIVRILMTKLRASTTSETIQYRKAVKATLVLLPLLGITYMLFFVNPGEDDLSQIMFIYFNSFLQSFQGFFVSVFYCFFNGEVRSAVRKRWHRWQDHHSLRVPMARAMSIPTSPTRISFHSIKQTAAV
T4 sequence (P24387 whole entry): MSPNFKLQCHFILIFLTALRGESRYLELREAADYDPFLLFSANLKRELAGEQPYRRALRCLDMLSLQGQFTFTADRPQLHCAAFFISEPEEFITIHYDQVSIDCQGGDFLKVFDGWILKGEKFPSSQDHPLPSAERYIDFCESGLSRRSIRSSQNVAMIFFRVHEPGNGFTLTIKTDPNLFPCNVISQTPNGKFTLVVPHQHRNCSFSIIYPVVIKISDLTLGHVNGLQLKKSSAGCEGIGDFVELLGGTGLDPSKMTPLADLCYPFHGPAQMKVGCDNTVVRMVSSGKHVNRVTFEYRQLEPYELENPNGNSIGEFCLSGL

[10] = M. tuberculosis H37Rv growth inhibitors, H37Rv strain (AID 1626); format: functional
[11] = P. falciparum Dd2 growth inhibitors, dose response, SYBR Green, cherry-picked samples (AID 1159567); format: functional, cell-based
[12] = Dd2 malaria parasite growth inhibition potency – SYBR Green, dry powder samples, dose response (AID 1159566); format: functional, cell-based;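 also: potency for growth inhibition with lower SYBR green DNA signal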
[13] = growth inhibition of PfATP4-mutant resistant parasites – NITD609-resistant line, SYBR Green, dry powder, dose response (AID 1159571); format: functional, cell-based;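 also: parasites synchronized at ring stage by sorbitol before testing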
[14] = growth inhibition of yeast DHODH-expressing 3D7 parasites – SYBR Green, dry powder samples, dose response (AID 1159570); format: functional, cell-based;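 also: parasite growth measured after 72 hours of compound exposure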

Sequence of Leucine aminopeptidase (Q8IL11 whole entry): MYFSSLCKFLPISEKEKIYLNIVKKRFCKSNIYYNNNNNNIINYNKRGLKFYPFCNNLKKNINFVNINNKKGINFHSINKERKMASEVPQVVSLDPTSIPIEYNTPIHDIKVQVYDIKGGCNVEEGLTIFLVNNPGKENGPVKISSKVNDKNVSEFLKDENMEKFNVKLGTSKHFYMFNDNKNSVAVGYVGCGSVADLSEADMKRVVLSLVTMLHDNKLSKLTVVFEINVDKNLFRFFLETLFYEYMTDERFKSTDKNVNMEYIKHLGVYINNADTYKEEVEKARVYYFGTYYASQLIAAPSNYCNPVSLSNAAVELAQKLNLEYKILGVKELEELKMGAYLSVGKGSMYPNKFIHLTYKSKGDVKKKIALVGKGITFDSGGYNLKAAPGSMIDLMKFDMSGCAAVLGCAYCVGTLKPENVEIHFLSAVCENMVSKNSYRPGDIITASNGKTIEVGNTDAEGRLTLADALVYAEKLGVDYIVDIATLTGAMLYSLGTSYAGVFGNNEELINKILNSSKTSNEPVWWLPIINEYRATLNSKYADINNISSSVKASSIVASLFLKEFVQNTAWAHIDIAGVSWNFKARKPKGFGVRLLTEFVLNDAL

Which IC50 (Leucine aminopeptidase) does the source give for CCc1ccccc1NC(=O)CSc1nnc[nH]1 here?
Its IC50 is 34.4 µM (active).

For C[C@@H]1CN([C@H](C)CO)C(=O)c2cc(NC(=O)Nc3ccc4c(c3)OCO4)ccc2O[C@@H](C)CCCCO[C@H]1CN(C)S(=O)(=O)c1ccccc1, which AC50 [1] is on record?
Its AC50 is 2.22 µM (active).

Which EC50 [2] does the source give for CC(=O)c1ccc(C(=O)Nc2sc3c(c2C(N)=O)CCN(Cc2ccccc2)C3)cc1 here?
Its EC50 is > 300 µM (not active).

And the EC50 [3]?
Its EC50 is > 300 µM (inconclusive).

What about the IC50 [4] of the same compound?
Its IC50 is 6 µM (active).

And the IC50 [5]?
Its IC50 is 4.93 µM (active).

Which IC50 (Leucine aminopeptidase) does the source give for N#Cc1ccsc1NC(=O)CSc1nnc[nH]1 here?
Its IC50 is 10.7 µM (active).

With O=[N+]([O-])c1ccc(NC2CCN(Cc3ccccc3)CC2)c2ccncc12 as the compound, how does the EC50 [6] read?
The EC50 was > 60 µM (not active).

And the EC50 [7]?
Its EC50 is 0.811 µM (active).

And the CC50 (Vero)?
Its CC50 is > 100 µM (active).

With CCOc1ccc2nc(Nc3nc4c(c(=O)[nH]3)CCC4)nc(C)c2c1 as the compound, how does the IC50 [8] read?
Its IC50 is 36.8 µM (active).

For COc1cccc(-n2nnnc2SCC(=O)Nc2ccc(C(C)=O)cc2)c1, which EC50 (Estrogen receptor) is on record?
Its EC50 is 17.3 µM (active).

Which results are given for Clc1ccc(-c2ccc(/C=N/c3ccc(N4CCOCC4)cc3)o2)c(Cl)c1?
EC50 [9]: 6.68 µM (active); IC50 [10]: > 100 µM (active)

Which AC50 [11] does the source give for COc1cccc(C#Cc2ccc([C@H]3[C@@H](CO)N(C(=O)C4CCC4)[C@H]3C#N)cc2)c1 here?
Its AC50 is 1.2 µM (active).

What about the AC50 [12] of the same compound?
The AC50 was 0.636 µM (active).

What about the AC50 [13] of the same compound?
The AC50 was 1.41 µM (active).

What about the AC50 [14] of the same compound?
The AC50 was 1.17 µM (active).
